Laboratory results taken from patent US9962383B2, “Compounds, compositions and methods of agelastatin alkaloids” (Massachusetts Institute of Technology, priority 2013, dated 2018).

The substances below were run on HeLa (assay: 48-hour IC50 by SRB, HeLa cervical carcinoma cells). Details: not given.
Type: cell-based, human
Procedure: (§1) Cells were grown in media supplemented with fetal bovine serum (FBS) and antibiotics (100 μg/mL penicillin and 100 U/mL streptomycin). […] Cells were incubated at 37° C. in a 5% CO2, 95% humidity atmosphere.
(§2) Adherent cells (HeLa, A549, BT549, and IMR90) were added into 96-well plates (5,000 cells/well for HeLa cell line; 2,000 cells/well for A549, BT549, and IMR90 cell lines) in 100 μL media and were allowed to adhere for 2-3 hours. Compounds were solubilized in DMSO as 100× stocks, added directly to the cells (100 μL final volume), and tested over a range of concentrations (1 nM to 10 μM) in triplicate (1% DMSO final) on a half-log scale. DMSO and cell-free wells served as the live and dead control, respectively. […] Briefly, media was removed from the plate, and cells were fixed by the addition of 100 μL cold 10% trichloroacetic acid in water. After incubating at 4° C. for 1 h, the plates were washed in water and allowed to dry. Sulforhordamine B was added as a 0.057% solution in 1% acetic acid (100 μL), and the plates were incubated at room temperature for 30 min, washed in 1% acetic acid, and allowed to dry. […] IC50 values were determined from three or more independent experiments using TableCurve (San Jose, Calif.).

Substance | IC50
(−)-O-methyl-di-epi-agelastatin A [(−)-50] | > 10 µM
(−)-dehydroagelastatin A [(−)-51] | > 10 µM

What follows are substances tested on human cell lines (U-937, HeLa, A549, BT549, IMR90) (assay: Ability to induce cell death in the panel of five human cell lines (Table 3)). Details: 48-hour exposure, 1 nM to 10 μM, cell lines of Table 3.
Type: cell-based
Procedure: Six (−)-agelastatins along with eight closely related derivatives prepared in the above examples were tested (Table 3). The six (−)-agelastatin alkaloids (1-6, respectively), (−)-O-methyl-di-epi-agelastatin A (50), (−)-dehydroagelastatin A (51), (−)-di-epi-agelastatin C (52), (+)-O-methyl-pre-agelastatin A and D (39 and 53, respectively), along with bicyclic pyrroles (+)-44, (+)-45, and triazone (+)-48 were tested for their ability to induce cell death in four human cancer cell lines (U-937, lymphoma; HeLa, cervical carcinoma; A549, non-small cell lung carcinoma; and BT549, breast carcinoma) and one immortalized normal human cell line (IMR90, lung fibroblasts) after a 48-hour exposure. […] Furthermore, enhanced activities in U-937 (20×) cell relative to the other cell lines (Table 3) were observed.
Adherent cells (HeLa, A549, BT549, and IMR90) were added into 96-well plates (5,000 cells/well for HeLa cell line; 2,000 cells/well for A549, BT549, and IMR90 cell lines) in 100 μL media and were allowed to adhere for 2-3 hours. Compounds were solubilized in DMSO as 100× stocks, added directly to the cells (100 μL final volume), and tested over a range of concentrations (1 nM to 10 μM) in triplicate (1% DMSO final) on a half-log scale. DMSO and cell-free wells served as the live and dead control, respectively. After 48 h of continuous exposure, the plates were evaluated using the SRB colorimetric assay as described previously (V. Vichai, K. Kirtikara, Nature Prot., 2006, 1, 1112). Briefly, media was removed from the plate, and cells were fixed by the addition of 100 μL cold 10% trichloroacetic acid in water. After incubating at 4° C. for 1 h, the plates were washed in water and allowed to dry. Sulforhordamine B was added as a 0.057% solution in 1% acetic acid (100 μL), and the plates were incubated at room temperature for 30 min, washed in 1% acetic acid, and allowed to dry. The dye was solubilized by adding 10 mM Tris base solution (pH 10.5, 200 μL) and incubating at room temperature for 30 min Plates were read at λ=510 nm. IC50 values were determined from three or more independent experiments using TableCurve (San Jose, Calif.).
In a 96-well plate, compounds were pre-added as DMSO stocks (1% final) in triplicate to achieve final concentrations of 1 nM to 10 μM on a half log scale. DMSO and cell-free wells served as the live and dead control, respectively. Suspension cells (U-937, CEM, CA46, Daudi, HL-60, and Jurkat; 10,000 cells/well) cells were distributed in 100 μL media to the compound-containing plate. After 48 h, cell viability was assessed by adding 20 μL of a PMS/MTS solution (A. H. Cory, T. C. Owen, J. A. Barltrop, J. G. Cory, Cancer Commun., 1991, 3, 207) to each well, allowing the dye to develop at 37° C. until the live control had processed MTS, and reading the absorbance at λ=490 nm. IC50 values were determined from three or more independent experiments using TableCurve (San Jose, Calif.).

Substance | activity (ability to induce cell death) in words
(−)-O-methyl-di-epi-agelastatin A [(−)-50] | None
(−)-dehydroagelastatin A [(−)-51] | None

The substances below were run on BT549 (assay: 48-hour IC50 by SRB, BT549 breast carcinoma cells). Details: not given.
Type: cell-based, human
Procedure: as §1, §2

Substance | IC50
(−)-O-methyl-di-epi-agelastatin A [(−)-50] | > 10 µM
(−)-dehydroagelastatin A [(−)-51] | > 10 µM

These substances were tested on A549 (assay: 48-hour IC50 by SRB, A549 non-small cell lung carcinoma cells). Details: not given.
Type: cell-based, human
Procedure: as §1, §2

Substance | IC50
(−)-O-methyl-di-epi-agelastatin A [(−)-50] | > 10 µM
(−)-dehydroagelastatin A [(−)-51] | > 10 µM

The substances below were run on U-937 (assay: 48-hour IC50 by MTS, U-937 lymphoma cells). Details: not given.
Type: cell-based, human
Procedure: as §1
In a 96-well plate, compounds were pre-added as DMSO stocks (1% final) in triplicate to achieve final concentrations of 1 nM to 10 μM on a half log scale. DMSO and cell-free wells served as the live and dead control, respectively. […] IC50 values were determined from three or more independent experiments using TableCurve (San Jose, Calif.).

Substance | IC50
(−)-O-methyl-di-epi-agelastatin A [(−)-50] | > 10 µM
(−)-dehydroagelastatin A [(−)-51] | > 10 µM

Each substance was assayed on IMR90 (assay: 48-hour IC50 by SRB, IMR90  lung fibroblasts). Details: IMR90 immortalized lung fibroblasts.
Type: cell-based, human
Procedure: as §1, §2

Substance | IC50
(−)-O-methyl-di-epi-agelastatin A [(−)-50] | > 10 µM
(−)-dehydroagelastatin A [(−)-51] | > 10 µM
